For assay [1], the target named is HCV NS3/4A protease genotype 1b (Hepatitis C virus genotype 1b, UniProt P26663). As to the kind of experiment: HCV NS3/4A protease time-resolved fluorescence (TRF) assay, Ki against genotype 1b. In kind it is biochemical. As to conditions: IC50 [gt-1b] (nM), NS3/4A genotype 1b, enzyme 0.2 nM. The gist of the method: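 First, protease (genotype 1b 0.2 nM, A156T 0.4 nM, genotype 3a 0.025 nM) is preincubated 30 min with inhibitor. Next, 25 nM TRF substrate starts the reaction, run 2.5 h at room temperature. Finally, europium fluorescence is read and Ki calculated from IC50.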

The test system of assay [2] is HCV genotype 1b replicon. Nature of the assay: HCV replicon assay, genotype 1b replicon EC50. Format: cell-based, Hepatitis C virus. As to conditions: genotype 1b replicon, read-out: EC50 [gt-1b]. Summed up: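 Assay format: compound titration on stable replicon cells, no G418 during treatment, 24 to 48 hours. Lysates were assayed for replicon RNA (hybridization/protection or TaqMan) or luciferase; EC50 fitted to four parameters against DMSO.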
(A replicon is a self-replicating genome or part of one, used to study replication in cells.)

Read-outs that look alike come from different tables or passages of the source.

What is called IC50 is the midpoint of a concentration-inhibition curve. Usually EC50 stands for the concentration at which the effect is half-maximal.

For `Cc1nc2ccccc2c2c1O[C@]1(CC2)C[C@H]2C(=O)N[C@]3(C(=O)NS(=O)(=O)C4(C)CC4)C[C@H]3/C=C\CCCCC[C@H](NC(=O)OC(C)C(F)(F)F)C(=O)N2C1` (stereo partly drawn) [Example 240, 1,1,1-trifluoropropan-2-yl [(2R,6S,12Z,13aS,14aR,16aS)-5′-methyl-14a-{[(1-methylcyclopropyl)sulfonyl]carbamoyl}-5,16-dioxo-1,1′,2′,5,6,7,8,9,10,11,13a,14,14a,15,16,16a-hexadecahydrospiro[cyclopropa[e]pyrrolo[1,2-a][1,4]diazacyclopentadecine-2,3′-pyrano[2,3-c]quinolin]-6-yl]carbamate], the half-maximal inhibitory concentration (IC50) in assay [1] came out at 0.01 nM. In addition, in assay [2], the half-maximal effective concentration (EC50) was determined as 2.65 nM.

As for `Cc1nc2ccccc2c2c1O[C@]1(CC2)C[C@H]2C(=O)N[C@]3(C(=O)NS(=O)(=O)C4(C)CC4)C[C@H]3/C=C\CCCCC[C@H](NC(=O)OC(C)C(F)(F)F)C(=O)N2C1` (stereo partly drawn) [Example 241, 1,1,1-trifluoropropan-2-yl [(2R,6S,12Z,13aS,14aR,16aS)-5′-methyl-14a-{[(1-methylcyclopropyl)sulfonyl]carbamoyl}-5,16-dioxo-1,1′,2′,5,6,7,8,9,10,11,13a,14,14a,15,16,16a-hexadecahydrospiro[cyclopropa[e]pyrrolo[1,2-a][1,4]diazacyclopentadecine-2,3′-pyrano[2,3-c]quinolin]-6-yl]carbamate], the half-maximal inhibitory concentration (IC50) in assay [1] turned out to be 0.012 nM. Also, in assay [2], the 50% effective concentration (EC50) came to 2.9 nM.

`COCC(C)(C)OC(=O)N[C@H]1CCCCC/C=C\[C@@H]2C[C@@]2(C(=O)NS(=O)(=O)C2(C)CC2)NC(=O)[C@@H]2C[C@@]3(CN2C1=O)CC(F)(F)c1c(c(C(C)C)nc2ccc(OC)cc12)O3` [Example 242, 1-methoxy-2-methylpropan-2-yl [(2S,6S,12Z,13aS,14aR,16aS)-1′,1′-difluoro-9′-methoxy-14a-{[(1-methylcyclopropyl)sulfonyl]carbamoyl}-5,16-dioxo-5′-(propan-2-yl)-1,1′,2′,5,6,7,8,9,10,11,13a,14,14a,15,16,16a-hexadecahydrospiro[cyclopropa[e]pyrrolo[1,2-a][1,4]diazacyclopentadecine-2,3′-pyrano[2,3-c]quinolin]-6-yl]carbamate] came in with an IC50 in assay [1] of 0.022 nM. In assay [2] (Hepatitis C virus), the half-maximal effective concentration (EC50) worked out at 3.38 nM.

As for `COc1ccc2nc(C(C)C)c3c(c2c1)CC[C@]1(C[C@H]2C(=O)N[C@]4(C(=O)NS(=O)(=O)C5(C)CC5)C[C@H]4/C=C\CCCCC[C@H](NC(=O)OC(C)(C)CCS(C)(=O)=O)C(=O)N2C1)O3` [Example 243, 2-methyl-4-(methylsulfonyl)butan-2-yl [(2R,6S,12Z,13aS,14aR,16aS)-9′-methoxy-14a-{[(1-methylcyclopropyl)sulfonyl]carbamoyl}-5,16-dioxo-5′-(propan-2-yl)-1,1′,2′,5,6,7,8,9,10,11,13a,14,14a,15,16,16a-hexadecahydrospiro[cyclopropa[e]pyrrolo[1,2-a][1,4]diazacyclopentadecine-2,3′-pyrano[2,3-c]quinolin]-6-yl]carbamate], the IC50 in assay [1] (K+ salt) came to 0.012 nM. Moreover, the EC50 in assay [2] (Hepatitis C virus, K+ salt) is 43 nM.

On to `COCCC(C)(C)OC(=O)N[C@H]1CCCCC/C=C\[C@@H]2C[C@@]2(C(=O)NS(=O)(=O)C2(C)CC2)NC(=O)[C@@H]2C[C@@]3(CN2C1=O)CC(F)(F)c1c(c(C(C)C)nc2ccc(OC)cc12)O3` [Example 244, 4-methoxy-2-methylbutan-2-yl [(2S,6S,12Z,13aS,14aR,16aS)-1′,1′-difluoro-9′-methoxy-14a-{[(1-methylcyclopropyl)sulfonyl]carbamoyl}-5,16-dioxo-5′-(propan-2-yl)-1,1′,2′,5,6,7,8,9,10,11,13a,14,14a,15,16,16a-hexadecahydrospiro[cyclopropa[e]pyrrolo[1,2-a][1,4]diazacyclopentadecine-2,3′-pyrano[2,3-c]quinolin]-6-yl]carbamate], for which the IC50 in assay [1] amounted to 0.008 nM. For the same compound, the 50% effective concentration (EC50) in assay [2] (Hepatitis C virus) was 2.89 nM.

Turning to `COc1ccc2nc(C(C)C)c3c(c2c1)C(F)(F)C[C@]1(C[C@H]2C(=O)N[C@]4(C(=O)NS(=O)(=O)C5(C)CC5)C[C@H]4/C=C\CCCCC[C@H](NC(=O)OC(C)(C)CCS(C)(=O)=O)C(=O)N2C1)O3` [Example 245, 2-methyl-4-(methylsulfonyl)butan-2-yl [(2S,6S,12Z,13aS,14aR,16aS)-1′,1′-difluoro-9′-methoxy-14a-{[(1-methylcyclopropyl)sulfonyl]carbamoyl}-5,16-dioxo-5′-(propan-2-yl)-1,1′,2′,5,6,7,8,9,10,11,13a,14,14a,15,16,16a-hexadecahydrospiro[cyclopropa[e]pyrrolo[1,2-a][1,4]diazacyclopentadecine-2,3′-pyrano[2,3-c]quinolin]-6-yl]carbamate], the IC50 in assay [1] (K+ salt) worked out at 0.025 nM. The EC50 in assay [2] (Hepatitis C virus, K+ salt) is 13.4 nM.

On to `Cc1nc2ccc(OC(F)(F)F)cc2c2c1O[C@]1(CC2)C[C@H]2C(=O)N[C@]3(C(=O)NS(=O)(=O)C4(C)CC4)C[C@H]3/C=C\CCCCC[C@H](NC(=O)N3CCCC3)C(=O)N2C1` [Example 246, (2R,6S,12Z,13aS,14aR,16aS)-5′-methyl-N-[(1-methylcyclopropyl)sulfonyl]-5,16-dioxo-6-[(pyrrolidin-1-ylcarbonyl)amino]-9′-(trifluoromethoxy)-1,1′,2′,6,7,8,9,10,11,13a,14,15,16,16a-tetradecahydrospiro[cyclopropa[e]pyrrolo[1,2-a][1,4]diazacyclopentadecine-2,3′-pyrano[2,3-c]quinoline]-14a(5H)-carboxamide], for which, in assay [1], 0.004 nM corresponded to half-maximal inhibition (IC50). In addition, the EC50 in assay [2] (Hepatitis C virus) came out at 17.4 nM.

Consider `COc1ccc2nc(C3CC3)c3c(c2c1)C(F)(F)C[C@]1(C[C@H]2C(=O)N[C@]4(C(=O)NS(=O)(=O)C5(C)CC5)C[C@H]4/C=C\CCCCC[C@H](NC(=O)OCC(C)C)C(=O)N2C1)O3` [Example 248, 2-methylpropyl [(2S,6S,12Z,13aS,14aR,16aS)-5′-cyclopropyl-1′,1′-difluoro-9′-methoxy-14a-{[(1-methylcyclopropyl)sulfonyl]carbamoyl}-5,16-dioxo-1,1′,2′,5,6,7,8,9,10,11,13a,14,14a,15,16,16a-hexadecahydrospiro[cyclopropa[e]pyrrolo[1,2-a][1,4]diazacyclopentadecine-2,3′-pyrano[2,3-c]quinolin]-6-yl]carbamate], for which the IC50 in assay [1] (K+ salt) amounted to 0.026 nM. Further, the EC50 in assay [2] (Hepatitis C virus, K+ salt) was determined as 14.7 nM.

In the case of `COc1ccc2nc(C3CC3)c3c(c2c1)C(F)(F)C[C@]1(C[C@H]2C(=O)N[C@]4(C(=O)NS(=O)(=O)C5(C)CC5)C[C@H]4/C=C\CCCCC[C@H](NC(=O)O[C@H](C)C(C)C)C(=O)N2C1)O3` [Example 249, (2R)-3-methylbutan-2-yl [(2S,6S,12Z,13aS,14aR,16aS)-5′-cyclopropyl-1′,1′-difluoro-9′-methoxy-14a-{[(1-methylcyclopropyl)sulfonyl]carbamoyl}-5,16-dioxo-1,1′,2′,5,6,7,8,9,10,11,13a,14,14a,15,16,16a-hexadecahydrospiro[cyclopropa[e]pyrrolo[1,2-a][1,4]diazacyclopentadecine-2,3′-pyrano[2,3-c]quinolin]-6-yl]carbamate], the IC50 in assay [1] (K+ salt) came out at 0.02 nM. In assay [2] (Hepatitis C virus, K+ salt), the EC50 came to 14.6 nM.

`COc1ccc2nc(C3CC3)c3c(c2c1)C(F)(F)C[C@]1(C[C@H]2C(=O)N[C@]4(C(=O)NS(=O)(=O)C5(C)CC5)C[C@H]4/C=C\CCCCC[C@H](NC(=O)O[C@@H](C)C(C)C)C(=O)N2C1)O3` [Example 250, (2S)-3-methylbutan-2-yl [(2S,6S,12Z,13aS,14aR,16aS)-5′-cyclopropyl-1′,1′-difluoro-9′-methoxy-14a-{[(1-methylcyclopropyl)sulfonyl]carbamoyl}-5,16-dioxo-1,1′,2′,5,6,7,8,9,10,11,13a,14,14a,15,16,16a-hexadecahydrospiro[cyclopropa[e]pyrrolo[1,2-a][1,4]diazacyclopentadecine-2,3′-pyrano[2,3-c]quinolin]-6-yl]carbamate] displayed a 50% inhibitory concentration (IC50) in assay [1] of 0.024 nM. Moreover, the EC50 in assay [2] (Hepatitis C virus) stood at 6.5 nM.

As to `Cc1nc2ccc(C(F)(F)F)cc2c2c1O[C@]1(CC2)C[C@H]2C(=O)N[C@]3(C(=O)NS(=O)(=O)C4(C)CC4)C[C@H]3/C=C\CCCCC[C@H](NC(=O)OC(C)(C)C)C(=O)N2C1` [Example 251, tert-butyl [(2R,6S,12Z,13aS,14aR,16aS)-5′-methyl-14a-{[(1-methylcyclopropyl)sulfonyl]carbamoyl}-5,16-dioxo-9′-(trifluoromethyl)-1,1′,2′,5,6,7,8,9,10,11,13a,14,14a,15,16,16a-hexadecahydrospiro[cyclopropa[e]pyrrolo[1,2-a][1,4]diazacyclopentadecine-2,3′-pyrano[2,3-c]quinolin]-6-yl]carbamate], the half-maximal inhibitory concentration (IC50) in assay [1] is 0.021 nM. Moreover, the concentration giving a half-maximal response (EC50) in assay [2] (Hepatitis C virus) was 14.3 nM.

On to `Cc1nc2ccc(C(F)(F)F)cc2c2c1O[C@]1(CC2)C[C@H]2C(=O)N[C@]3(C(=O)NS(=O)(=O)C4(C)CC4)C[C@H]3/C=C\CCCCC[C@H](NC(=O)OC3CCCC3)C(=O)N2C1` [Example 252, cyclopentyl [(2R,6S,12Z,13aS,14aR,16aS)-5′-methyl-14a-{[(1-methylcyclopropyl)sulfonyl]carbamoyl}-5,16-dioxo-9′-(trifluoromethyl)-1,1′,2′,5,6,7,8,9,10,11,13a,14,14a,15,16,16a-hexadecahydrospiro[cyclopropa[e]pyrrolo[1,2-a][1,4]diazacyclopentadecine-2,3′-pyrano[2,3-c]quinolin]-6-yl]carbamate], for which it took 0.01 nM to reach half-maximal inhibition in assay [1] (IC50). The EC50 in assay [2] (Hepatitis C virus) came out at 44.4 nM.

For the origin of these results see patent publication US8987195B2 (priority 2012, dated 2015).
